The record followed here is US20100222396A1 (Novartis AG, priority 2009, published 2010).

The target of experiment [1] is T1, human orexin 1 receptor (hOx1R) (Homo sapiens, UniProt O43613).
T1 construct: expressed in transfected cells
T1 sequence (O43613 1-425): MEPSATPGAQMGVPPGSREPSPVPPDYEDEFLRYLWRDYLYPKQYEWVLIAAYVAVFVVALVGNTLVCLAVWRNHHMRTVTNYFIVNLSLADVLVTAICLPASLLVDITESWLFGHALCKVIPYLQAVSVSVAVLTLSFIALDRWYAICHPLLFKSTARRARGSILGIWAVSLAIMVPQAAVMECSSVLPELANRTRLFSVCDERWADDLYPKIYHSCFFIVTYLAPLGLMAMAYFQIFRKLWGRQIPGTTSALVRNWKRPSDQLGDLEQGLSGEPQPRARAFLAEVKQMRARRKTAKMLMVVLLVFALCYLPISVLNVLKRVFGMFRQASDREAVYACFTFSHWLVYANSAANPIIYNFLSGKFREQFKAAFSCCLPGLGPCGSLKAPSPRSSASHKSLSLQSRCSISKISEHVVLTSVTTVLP
Briefly: Calcium accumulation in cells (FLIPR), antagonism of orexin A, hOx1R. The format is cell-based. To be noted: for Kd: cells expressing human orexin 1 receptor, IC50 vs orexin A converted by Cheng and Prusoff correction. On the procedure:
(§1) Cells expressing human orexin 1 or human orexin 2 receptors, were seeded at 8,000 cells/well in 384 well black-walled clear bottom, poly-D-lysine coated plates. After 24 h, the medium was removed and cells were washed once with phosphate buffered saline and serum-deprived overnight in assay buffer (130 mM NaCl, 5.4 mM KCl, 1.8 mM CaCl2, 0.8 mM MgSO4, 0.9 mM NaH2PO4, 25 mM glucose, 20 mM HEPES, pH 7.4) containing bovine serum albumin (1% w/v).
(§2) On the day of the experiment, the cells seeded in black plates were treated with assay buffer containing the Ca^2+ sensitive fluorescent dye Fluo-4-AM (2 μM), and probenecid (0.1 mM). After 1 h plates were washed twice with, and resuspended in, assay buffer containing probenecid (0.1 mM) using a multi plate washer. The plates were placed into a FLIPR II (Fluorometric Imaging Plate Reader, Molecular Devices, Sunnyvale, Calif., USA) and baseline fluorescence (fluorescence light units, FLU) was measured (5 measurements, 2 S each; laser excitation 488 nm at 0.6-1 W, CCD camera exposure 0.4 s) before addition of buffer alone (basal) or containing test compounds (either compound of formula I alone, agonist alone or agonist in the presence of various concentrations of compounds of formula I). Fluorescence measurements were then continued every 1 S for 120 S followed by every 4 S for 240 S.
(§3) The measurements were typically made in two sequences:
(§4) Compounds of formula I were tested usually in a concentration range from 10^−9 M to 10^−5 M.
(§5) In the second round, performed one hour later (to allow for equilibration), Orexin A was tested either in the absence (calibration curves, Orexin A agonist controls) or in the presence of compounds of formula I to determine antagonism.

In experiment [2] the target is T2, human orexin 2 receptor (hOx2R) (Homo sapiens, UniProt O43614).
T2 construct: expressed in transfected cells
T2 sequence (O43614 1-444): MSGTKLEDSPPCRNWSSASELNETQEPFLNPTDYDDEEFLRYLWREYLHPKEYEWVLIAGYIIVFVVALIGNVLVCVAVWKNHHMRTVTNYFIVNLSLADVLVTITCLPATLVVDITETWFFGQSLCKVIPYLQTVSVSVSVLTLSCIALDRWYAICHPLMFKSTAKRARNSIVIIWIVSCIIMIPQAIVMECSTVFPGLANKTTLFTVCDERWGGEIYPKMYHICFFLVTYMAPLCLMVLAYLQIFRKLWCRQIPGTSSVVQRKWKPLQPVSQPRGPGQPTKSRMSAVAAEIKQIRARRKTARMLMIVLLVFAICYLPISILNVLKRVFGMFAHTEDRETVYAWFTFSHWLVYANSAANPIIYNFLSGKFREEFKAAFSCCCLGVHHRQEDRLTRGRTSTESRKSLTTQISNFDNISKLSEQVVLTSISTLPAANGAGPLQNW
Briefly: Calcium accumulation in cells (FLIPR), antagonism of orexin A, hOx2R. The class given is cell-based. To be noted: for Kd: cells expressing human orexin 2 receptor, IC50 vs orexin A converted by Cheng and Prusoff correction. The protocol: as §1, §2, §3, §4, §5

Experiment [3] concerns the target T1, human orexin 1 receptor (hOx1R). Briefly: Radioligand binding assay ([125I]orexin A competition), hOx1R. Particulars: CHO or HEK cell membranes, 1 h room temperature. On the procedure: (§6) For crude cell membrane preparations, cells (CHO, Chinese hamster ovary or HEK, human embryonic kidney) expressing human orexin 1 or human orexin 2 receptors, were washed with HEPES (10 mM, pH 7.5), scraped off the culture plates with the same buffer, and centrifuged at 4° C. for 5 min at 2500×g. The cell pellet was either stored at −80° C. or used directly. Before the experiments, cell membranes were re-suspended in binding assay buffer (10 mM HEPES, 0.5% (w/v) bovine serum albumin, pH 7.5) by homogenisation with a Polytron homogeniser at 50 Hz for 20 s. Cell membranes were also used as made available by commercial providers.
(§7) In initial saturation experiments (to calculate Bmax), cell homogenates (150 μl) were incubated with 25-300 pM of the radioligand ([^125I]orexin A, 50 μl), 8 concentrations in triplicates in the presence or absence Orexin A (1 μM, 50 μl) to define non specific binding. Bound radioactivity was measured, and data were analysed with the program XLFIT or Graphpad Prism. Protein concentration was determined according to the Bradford/BioRad Protein Assay Kit.
(§8) In competition experiments, cell homogenates (150 μl) were incubated in assay buffer (10 mM HEPES, pH 7.5, 0.5% (w/v) bovine serum albumin, 5 mM MgCl2, […], and tween 0.05%) for 1 h at room temperature with about […] of the radioligand ([^125I]orexin A, 2100 Ci/mmole, 50 μl), and with various concentrations of compounds of the invention (50 μl) in triplicates; non-specific binding was determined in the presence of Orexin A (1 μM). Reactions were terminated by vacuum filtration, 3 washes of ice cold wash buffer (Tris-HCl pH 7.4/10 mM, with NaCl 154 mM). Competition data is expressed in Table 1 as Kd [μM].

For experiment [4], the target named is T2, human orexin 2 receptor (hOx2R). As to the kind of experiment: Radioligand binding assay ([125I]orexin A competition), hOx2R. To be noted: CHO or HEK cell membranes, 1 h room temperature. On the procedure: as §6, §7, §8
The mark [5] stands for this setting: measured at a concentration of 10 μM of compound (cells marked ^a).

SMILES strings stand for the structures.

Usually Kd stands for the free concentration of one partner at which half of the binding sites on the other are occupied at equilibrium, for simple one-to-one binding. One may read the inhibition as the share of the control response that was lost under treatment.

Regarding `CN(C(=O)c1ccc2occc2c1)[C@H](CCNC(=O)c1ccccn1)Cc1ccccc1` [Example 20, Pyridine-2-carboxylic acid {(8)-3-[(benzofuran-5-carbonyl)-methyl-amino]-4-phenyl-butyl}-amide], the dissociation constant Kd is 413 nM in experiment [1], 123 nM in experiment [2], 163 nM in experiment [3] and 168 nM in experiment [4].
With `CN(C(=O)c1ccc2c(c1)OCCO2)[C@H](CCNC(=O)c1ccccn1)Cc1ccccc1` [Example 71, Pyridine-2-carboxylic acid {(S)-3-[(2,3-dihydro-benzo[1,4]dioxine-6-carbonyl)-methyl-amino]-4-phenyl-butyl}-amide], the results for the Kd in experiment [1], in experiment [3] and in experiment [4] were 1940 nM, 1610 nM and 9520 nM, respectively. The inhibition at 10 µM in experiment [2] (setting [5]) turned out to be 28%.
`CN(C(=O)c1cccc2[nH]ccc12)[C@H](CCNC(=O)c1ccccn1)Cc1ccccc1` [Example 11, 1H-Indole-4-carboxylic acid {(S)-1-benzyl-3-[(pyridine-2-carbonyl)-amino]-propyl}-methyl-amide]: the Kd in experiment [1] was 22 nM; in experiment [2] it was 16 nM; in experiment [3], 21 nM; in experiment [4], 52 nM.
On to `COc1cc(Cl)cc(C(=O)N(C)[C@H](CCNC(=O)c2cccn2C)Cc2ccccc2)c1` [Example 106, 1-Methyl-1H-pyrrole-2-carboxylic acid {(S)-3-[(3-chloro-5-methoxy-benzoyl)-methyl-amino]-4-phenyl-butyl}-amide], for which the Kd in experiment [1] was determined as 84 nM; in experiment [3], 50 nM; in experiment [4], 3 nM.
With `[2H]C([2H])(c1ccccc1)C(CCNC(=O)c1ccccn1)N(C)C(=O)c1ccc2c(c1)OCO2` (stereo not shown) [Example 110, Pyridine-2-carboxylic acid {3-[(benzo[1,3]dioxole-5-carbonyl)-methyl-amino]-4,4-dideutero-4-phenyl-butyl}-amide], the Kd was found to be 1730 nM in experiment [1] and 1380 nM in experiment [3].
In the same order, the values of `CN(C(=O)c1cccc2c1OCO2)[C@H](CCNC(=O)c1ccccn1)Cc1ccccc1` [Example 30, Pyridine-2-carboxylic acid {(S)-3-[(benzo[1,3]dioxole-4-carbonyl)-methyl-amino]-4-phenyl-butyl}-amide] are 2190 nM and 1100 nM.
The matching figures for `CN(C(=O)c1ccc2c(c1)OCO2)[C@H](CCNC(=O)c1ccccn1)Cc1ccccc1` [Example 1, Pyridine-2-carboxylic acid {(S)-3-[(benzo[1,3]dioxole-5-carbonyl)-methyl-amino]-4-phenyl-butyl}-amide]: 228 nM and 179 nM.
In the same order, the values of `CN(C(=O)c1cccc2c1OCO2)[C@@H](CCNC(=O)c1ccccn1)Cc1ccccc1` [Example 61, Pyridine-2-carboxylic acid {(R)-3-[(benzo[1,3]-dioxole-4-carbonyl)-methyl-amino]-4-phenyl-butyl}-amide] are 3830 nM and 4560 nM.
For `CN(C(=O)c1ccc2c(c1)OCO2)[C@@H](CCNC(=O)c1ccccn1)Cc1ccccc1` [Example 47, Pyridine-2-carboxylic acid {(R)-3-[(benzo[1,3]dioxole-5-carbonyl)-methyl-amino]-4-phenyl-butyl}-amide], the Kd stood at 6290 nM in experiment [1] and 12300 nM in experiment [3].
On to `CN(C(=O)c1ccc2c(c1)OCO2)[C@@H](Cc1ccccc1)C(C)(C)CNC(=O)c1ccccn1` [Example 113, Pyridine-2-carboxylic acid {(S)-3-[(benzo[1,3]dioxole-5-carbonyl)-methyl-amino]-2,2-dimethyl-4-phenyl-butyl}-amide], for which the inhibition at 10 µM in experiment [1] (setting [5]) worked out at 24%. Moreover, the figures for the Kd in experiment [2] and in experiment [4] were 497 nM and 531 nM, respectively.
